Experimental data reported in patent US9340788B2 (priority 2007, dated 2016).

Columns and labels:
HCMV [1] = assay: HCMV IE1 / viral gene expression, western blot of infected cells; format: cell-based, Human cytomegalovirus; conditions: for HCMV IE1 gene expression: IMC-3G3 10 μg/ml 12 h or Gleevec 100 nM 1 h pre-treatment, western blot
Method: (A) pp65 immunofluorescence after HCMV treatment (1 h, 4° C.) followed by shifting to 37° C. for indicated times. Rows represent (top to bottom): HEL, PDGFRα null fibroblasts, parental fibroblasts, null fibroblasts overexpressing hPDGFRα, HEL transfected with control, or PDGFRα siRNA. Nuclei were stained with DAPI. (B) Average±S.D. pp65 positive/100 cells counted in triplicate from (A). (C) Mock or HCMV infected cells were analyzed by western blotting with the indicated antibodies. Lanes 1-4 indicate HEL, 325S, PDGFRα null and PDGFRα null over-expressing hPDGFRα, respectively. (D) HEL transfected with control or PDGFRα siRNA were mock (lanes 1) or HCMV-treated (lanes 2) and subjected to western blots with indicated antibodies. (E) Western blot of HEL and U87 lysates after infection with mock (lanes 1), HCMV (lanes 2), or HCMV pretreated with IMC-3G3 (10 μg/ml, 12 h, lanes 3) or Gleevec (100 nM, 1 h, lanes 4). (F) PDGFRα siRNA treated cells infected with indicated HCMV strains and immunostained for IE1 12 hpi (primary infection). 6 dpi, supernatants were used to infect naïve HEL cells, followed by IE1 immunostaining and quantification (secondary infection). Average (n=6) values±S.D. are shown.
HUVEC cells were pre-treated with IMC-3G3 (10 μg/ml, Imclone, 12 h), or Gleevec (100 nM, 1 h) prior to HCMV or mock infection. 12 hours post-infection, cell lysates were analyzed by western blot for the presence of IE1 gene product. […] The same blot was stripped and re-probed for actin (lower panel). Lane designation is 1—Mock, 2—HCMV, 3—IMC-3G3+HCMV, 4—Gleevec+HCMV.
Upper panel: HEL cells pretreated with anti-human PDGFRα antibody (10 ng/ml, for 30 min, clone AF-307-NA from R&D; lanes 1 and 3) or with AG 1295 (lane 4, […], from Calbiochem) were stimulated with Towne HCMV (lanes 2 through 4) or Mock infected (lane 1) for 10 min at 37 C. Cells were washed and further incubated for 2 h at 37 C (to allow expression of IE1 gene product). Afterwards, cells were harvested in RIPA buffer and processed for western blotting as described.
Western Blot, Immunoprecipitation, and Immunofluorescence analyses. For stimulation experiments, cells were serum-starved for 24 h, followed by stimulation with HCMV (MOI of 0.5), PDGF-AA (5-10 ng/ml, from R&D Systems), or mock, for 10 minutes. In some cases, cells were pre-treated with IMC-3G3 (ImClone Inc.) at 10 µg/ml (2 or 12 h) or Gleevec® (100 nM, 1 h) prior to HCMV exposure. Cell lysates were analyzed by SDS-PAGE. Antibodies used were as follows: polyclonal anti-PDGFRα ( 1/500), phosphor-Tyrosine clone 4G10 ( 1/1000), and monoclonal anti-p85 PI3-K ( 1/1000), (Upstate Biotechnology), anti HCMV IE1 MAB810 (Chemicon; 1/1000), anti HCMV pp65 (Novocastra, 1/1000), anti-phosphor-PDGFRα ( 1/500, pTyr 754), anti-phosphor-Akt (Ser 473, 1/1000) and total Akt ( 1/1000; all from Cell Signaling). Anti-actin polyclonal control antibody was used ( 1/500, Sigma). Immunoprecipitations were performed using protein G (Pierce) according to manufacturer's instructions. For immunofluorescence, monoclonal HCMV pp65 and phosphor-PDGFRα (p-Tyr 754, Santa Cruz Biotechnology) were used, overnight at 4° C., followed by 1 hour incubation with secondary antibodies conjugated to Alexa-488, or Alexa 568 ( 1/5,000, Molecular Probes). Nuclei were counterstained with DAPI. Co-immunoprecipitation experiments were performed using full length soluble purified recombinant gB (gB 680, from Don Diamond, City of Hope, Calif.) and detergent soluble extract of HEL cells generated in lysis buffer (1% NP-40, 75 mM NaCl and 50 mM Tris-HCl). 500 μg of protein from total cell extract was incubated with 25 μg of gB 680 in lysis buffer in the presence of an anti-gB (Virusys, Inc) or anti-PDGFRα (R&D) antibody overnight at 4° C. Immune complexes were recovered with protein A-Sepharose beads (2 hr incubation), denatured and separated on SDS-PAGE for western blot with anti-gB (Virusys, Inc) or anti-PDGFRα (Cell Signaling Technology) antibodies.

HCMV [2] = assay: Viral attachment and internalization assay (pp65 immunofluorescence); format: cell-based, Human cytomegalovirus
Method: (A) HEL cells were pretreated with PBS (20 min 4° C.), IMC-3G3 (2 h, 37° C., 10 μg/ml), or PDGF-AA (20 min, 4° C., 10 ng/ml) prior to infection with HCMV (MOI of 1, 4° C., 1 h). Cells were returned to 37° C. for 30 minutes, and processed for pp65^HCMV and PDGFRα double immunofluorescence. […] All conditions were assayed in triplicate cultures. One hundred cells in 4 low magnification fields were counted. Bars represent SD.
Viral Attachment and Internalization Assays. Mouse fibroblasts and HEL cells (72 hours following siRNA transfections) were incubated with HCMV (MOI of 0.5) or mock treated for 1 hour at 4° C., after which cells were returned to 37° C. for 15, 30, or 60 min. Cells were fixed using methanol (20 min) and processed for pp65 immunofluorescence. Four low power fields were counted for each condition and pp65 positive were recorded for each 100 cells. Internalization assays were repeated twice.

PI3-K/Akt signaling = format: cell-based, human; conditions: HEL; 10 min stimulation; IMC-3G3 2 μg/ml or Gleevec 100 nM; p-Akt Ser 473
Method: (A) HEL cells stimulated with HCMV or PDGF-AA were subjected to immunoprecipitation and western blot analyses with indicated antibodies. (B) Phospho-PDGFRα ELISA of cells+/−pretreatment with IMC-3G3 (10 μg/ml, 2 h) followed by HCMV (MOI=1) or PDGF (10 ng/ml) for 10 min. Mean values (n=6)±S.D are shown. (C) Western blot of HEL mock, HCMV, or PDGF-AA stimulated (10 min), +/−IMC-3G3 (2 μg/ml) or Gleevec® (Imatinib) (100 nM). The same membrane was used for p-Akt^Ser 473 and Akt.
HEL cells pretreated with blocking reagents (as indicated; 30 min, 37 C) were stimulated for 10 min with HCMV, PDGF-AA (5 ng/ml), or mock-treated. Cell lysates were collected in RIPA buffer (supplemented with protease and phosphatase inhibitors) and subjected to Western blot analysis.
For stimulation experiments, cells were serum-starved for 24 h, followed by stimulation with HCMV (MOI of 0.5), PDGF-AA (5-10 ng/ml, from R&D Systems), or mock, for 10 minutes. In some cases, cells were pre-treated with IMC-3G3 (ImClone Inc.) at 10 g/ml (2 or 12 h) or Gleevec® (100 nM, 1 h) prior to HCMV exposure. Cell lysates were analyzed by SDS-PAGE. Antibodies used were as follows: polyclonal anti-PDGFRα ( 1/500), phosphor-Tyrosine clone 4G10 ( 1/1000), and monoclonal anti-p85 PI3-K ( 1/1000), (Upstate Biotechnology), anti HCMV IE1 MAB810 (Chemicon; 1/1000), anti HCMV pp65 (Novocastra, 1/1000), anti-phosphor-PDGFRα ( 1/500, pTyr 754), anti-phosphor-Akt (Ser 473, 1/1000) and total Akt ( 1/1000; all from Cell Signaling). Anti-actin polyclonal control antibody was used ( 1/500, Sigma). Immunoprecipitations were performed using protein G (Pierce) according to manufacturer's instructions.

[3] = human epithelial, endothelial, and fibroblast cells

Substance: IMC-3G3: humanized PDGFRα blocking antibody (ImClone Inc.)
- HCMV IE1 gene expression (HCMV [1]; HEL cells): completely inhibited
- HCMV IE1 expression (HCMV [1]; HUVEC, pre-treated with IMC-3G3 10 μg/ml 12 h or Gleevec 100 nM 1 h, western blot 12 hours post-infection): completely inhibited
- HCMV IE1 gene expression (HCMV [1]; U87 glioma cells): completely inhibited
- HCMV gene expression (HCMV [1]; [3]): completely inhibited
- inhibition of HCMV entry (pp65 positive cells) (HCMV [2]; HEL cells, IMC-3G3 2 h, 37° C., 10 μg/ml, PDGF-AA 20 min, 4° C., 10 ng/ml, HCMV MOI of 1, 30 min at 37° C.): ~45%
- HCMV viral internalization (HCMV [2]; [3]): completely inhibited
- Akt phosphorylation induced by either HCMV or PDGF-AA (PI3-K/Akt signaling): abolished
